Measured values published in patent US9359339B2, “Glucagon receptor antagonist compounds, compositions containing such compounds and methods of use” (Merck Sharp & Dohme Corp., priority 2009, dated 2016).
pIC50: −log10 of the molar value.

Target: human glucagon receptor (Homo sapiens (Human), UniProt P47871)
Experiment: Glucagon Receptor Binding Assay (125I-glucagon SPA, CHO cell membranes)
Conditions: inhibition of 125I-Glucagon binding to membranes of CHO cells expressing cloned human glucagon receptor; more active isomer
Method: Glucagon Receptor Binding Assay
A stable CHO (Chinese hamster ovary) cell line expressing cloned human glucagon receptor was maintained as described (Chicchi, et. al. J Biol Chem 272, 7765-9 (1997); Cascieri, et. al. J Biol Chem 274, 8694-7 (1999)). To determine antagonistic binding affinity of compounds, 0.001-0.003 mg of cell membranes from these cells were pre-incubated with 0.100 mg WGA-coated PVT SPA beads (Amersham) for 20 minutes at room temperature in 25 μL of a buffer containing 50 mM Tris-HCl (pH 7.5), 5 mM MgCl2, 2 mM EDTA, 0.1% BSA and 3% glycerol in Costar 384 well plates with clear bottoms (#3706). Next, 25 μL of ^125I-Glucagon (New England Nuclear, MA) (1×10^−14 mol per well) and either 1 μL solutions of test compounds or 0.001 mM unlabeled glucagon or DMSO were added and mixed. After 4-12 hours incubation at room temperature, the radioactivity bound to the cell membranes was determined in a radioactive emission detection counter (Wallac-Microbeta). Data were analyzed using the Data Analyzer software program of Merck & Co., Inc. The IC50 values were calculated using non-linear regression analysis assuming single-site competition.

Chain of human glucagon receptor (P47871 26-477): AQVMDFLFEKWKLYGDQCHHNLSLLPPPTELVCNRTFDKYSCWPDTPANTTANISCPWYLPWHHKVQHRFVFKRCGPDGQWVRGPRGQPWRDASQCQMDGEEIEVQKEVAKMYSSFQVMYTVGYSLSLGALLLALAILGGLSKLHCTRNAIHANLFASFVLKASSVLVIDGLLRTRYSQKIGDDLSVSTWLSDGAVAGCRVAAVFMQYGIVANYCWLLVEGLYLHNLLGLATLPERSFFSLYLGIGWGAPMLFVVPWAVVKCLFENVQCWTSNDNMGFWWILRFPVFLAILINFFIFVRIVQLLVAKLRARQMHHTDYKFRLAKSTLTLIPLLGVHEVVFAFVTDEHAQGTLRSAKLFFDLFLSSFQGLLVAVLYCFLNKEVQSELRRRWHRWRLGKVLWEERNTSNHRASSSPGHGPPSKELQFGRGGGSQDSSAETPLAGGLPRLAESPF

pIC50	SMILES
9.00	CCCC[C@H](c1ccc(C(=O)NCCC(=O)O)cc1)C(c1ccc(Cl)cc1)c1csc2c(C#N)cc(Cl)cc12 (stereo partly drawn) [Example 32, N-(4-{(1S)-1-[(5-CHLORO-7-CYANO-1-BENZOTHIEN-3-YL)(4-CHLOROPHENYL)METHYL]-4-METHYLBUTYL}BENZOYL)-β-ALANINE]
9.70	CCC[C@H](c1ccc(C(=O)NCCC(=O)O)cc1)C(c1ccc(OC(F)(F)F)cc1)c1csc2c(C#N)cc(C)cc12 (stereo partly drawn) [Example 23, N-(4-{(1S)-1-[(5-METHYL-7-CYANO-1-BENZOTHIEN-3-YL)(4-TRIFLUOROMETHOXYPHENYL)METHYL]BUTYL}BENZOYL)-β-ALANINE]
8.64	CCC[C@H](c1ccc(C(=O)Nc2nnn[nH]2)cc1)C(c1ccc(Cl)cc1)c1csc2c(Br)cc(C)cc12 (stereo partly drawn) [Example 3, 4-{(1S)-1-[(7-BROMO-5-METHYL-1-BENZOTHIEN-3-YL)(4-CHLOROPHENYL)METHYL]BUTYL}-N-1H-TETRAZOL-5-YLBENZAMIDE]
8.66	CCC[C@H](c1ccc(C(=O)NCCC(=O)O)cc1)C(c1ccc(Cl)cc1)c1c(C)sc2ccccc12 (stereo partly drawn) [Example 8, N-(4-{(1S)-1-[(2-METHYL-1-BENZOTHIEN-3-YL)(4-CHLOROPHENYL)METHYL]BUTYL}BENZOYL)-β-ALANINE]
7.55	CCC[C@H](c1ccc(C(=O)NCCC(=O)O)cc1)C(c1ccc(Cl)cc1)c1csc2c(C)cc(Cl)cc12 (stereo partly drawn) [Example 6, N-(4-{(1S)-1-[(5-CHLORO-7-METHYL-1-BENZOTHIEN-3-YL)(4-CHLOROPHENYL)METHYL]BUTYL}BENZOYL)-β-ALANINE]
8.21	CCC[C@H](c1ccc(C(=O)NCCC(=O)O)cc1)C(c1ccc(Cl)cc1)c1csc2c(C#N)cc(Cl)cc12 (stereo partly drawn) [Example 1, N-(4-{(1S)-1-[(5-CHLORO-7-CYANO-1-BENZOTHIEN-3-YL)(4-CHLOROPHENYL)METHYL]BUTYL}BENZOYL)-β-ALANINE]
8.60	CCC[C@H](c1ccc(C(=O)NCc2nn[nH]n2)cc1)C(c1ccc(Cl)cc1)c1csc2c(Br)cc(C)cc12 (stereo partly drawn) [Example 4, 4-{(1S)-1-[(7-BROMO-5-METHYL-1-BENZOTHIEN-3-YL)(4-CHLOROPHENYL)METHYL]BUTYL}-N-(2H-TETRAZOL-5-YLMETHYL)BENZAMIDE]
8.89	CCC[C@H](c1ccc(C(=O)NCCC(=O)O)cc1)C(c1ccc(Cl)cc1)c1csc2c(C#N)cc(C)cc12 (stereo partly drawn) [Example 14, N-(4-{(1S)-1-[(5-METHYL-7-CYANO-1-BENZOTHIEN-3-YL)(4-CHLOROPHENYL)METHYL]BUTYL}BENZOYL)-β-ALANINE]
9.40	CCCC[C@H](c1ccc(C(=O)NCCC(=O)O)cc1)C(c1ccc(Cl)cc1)c1csc2c(C#N)cc(Cl)cc12 (stereo partly drawn) [Example 29, N-(4-{(1S)-1-[(5-CHLORO-7-CYANO-1-BENZOTHIEN-3-YL)(4-CHLOROPHENYL)METHYL]PENTYL}BENZOYL)-β-ALANINE]
8.96	CCC[C@H](c1ccc(C(=O)NCCC(=O)O)cc1)C(c1ccc(Cl)cc1)c1csc2c(C#N)cc(F)cc12 (stereo partly drawn) [Example 13, N-(4-{(1S)-1-[(5-FLUORO-7-CYANO-1-BENZOTHIEN-3-YL)(4-CHLOROPHENYL)METHYL]BUTYL}BENZOYL)-β-ALANINE]
8.11	CCC[C@H](c1ccc(C(=O)NCCC(=O)O)cc1)C(c1ccc(Cl)cc1)c1c(C)sc2c(C#N)cc(Cl)cc12 (stereo partly drawn) [Example 19, N-(4-{(1S)-1-[(2-METHYL-5-CHLORO-7-CYANO-1-BENZOTHIEN-3-YL)(4-CHLOROPHENYL)METHYL]BUTYL}BENZOYL)-β-ALANINE]
8.33	CCCC[C@H](c1ccc(C(=O)NCCC(=O)O)cc1)C(c1ccc(Cl)cc1)c1csc2c(-c3ccnn3C)cc(F)cc12 (stereo partly drawn) [Example 2, N-[4-((1S)-1-{(4-CHLOROPHENYL)[5-FLUORO-7-(1-METHYL-1H-PYRAZOL-5-YL)-1-BENZOTHIEN-3-YL]METHYL}PENTYL)BENZOYL]-β-ALANINE]
8.74	CCC[C@H](c1ccc(C(=O)NCCC(=O)O)cc1)C(c1ccc(Cl)cc1)c1sc2ccccc2c1C (stereo partly drawn) [Example 45, N-[4-((1S)-1-{(4-CHLOROPHENYL)[3-METHYL-1-BENZOTHIEN-2-YL]METHYL}BUTYL)BENZOYL]-β-ALANINE]
8.77	CCC[C@H](c1ccc(C(=O)NCCC(=O)O)cc1)C(c1ccc(Cl)cc1)c1csc2c(C#N)cc(C(F)(F)F)cc12 (stereo partly drawn) [Example 15, N-(4-{(1S)-1-[(5-TRIFLUOROMETHYL-7-CYANO-1-BENZOTHIEN-3-YL)(4-CHLOROPHENYL)METHYL]BUTYL}BENZOYL)-β-ALANINE]
8.47	CCC[C@H](c1ccc(C(=O)NCCS(=O)(=O)O)cc1)C(c1ccc(Cl)cc1)c1csc2c(Br)cc(C)cc12 (stereo partly drawn) [Example 43, 2-[(4-{(1S)-1-[(5-METHYL-7-BROMO-1-BENZOTHIOPHEN-3-YL)(4-CHLOROPHENYL)METHYL]BUTYL}BENZOYL)AMINO]ETHANE SULFONIC ACID]
9.70	N#Cc1cc(Cl)cc2c(C(c3ccc(Cl)cc3)[C@H](CCC(F)(F)F)c3ccc(C(=O)NCCC(=O)O)cc3)csc12 (stereo partly drawn) [Example 27, N-(4-{(1S)-1-[(5-CHLORO-7-CYANO-1-BENZOTHIEN-3-YL)(4-CHLOROPHENYL)METHYL]-4,4,4-TRIFLUOROBUTYL}BENZOYL)-β-ALANINE]
7.93	CCC[C@H](c1ccc(C(=O)NCC(F)(F)C(=O)O)cc1)C(c1ccc(Cl)cc1)c1csc2c(Br)cc(C)cc12 (stereo partly drawn) [Example 40, 3-[(4-{(1S)-1-[(5-METHYL-7-BROMO-1-BENZOTHIOPHEN-3-YL)(4-CHLOROPHENYL)METHYL]BUTYL}BENZOYL)AMINO]-2,2-DIFLUOROPROPANOIC ACID]
9.15	CCC[C@H](c1ccc(C(=O)NCCC(=O)O)cc1)C(c1ccc(Cl)c(Cl)c1)c1csc2c(C#N)cc(Cl)cc12 (stereo partly drawn) [Example 21, N-(4-{(1S)-1-[(5-CHLORO-7-CYANO-1-BENZOTHIEN-3-YL)(3,4-DICHLOROPHENYL)METHYL]BUTYL}BENZOYL)-β-ALANINE]
10.00	CCC[C@H](c1ccc(C(=O)NCCC(=O)O)cc1)C(c1ccc(OC(F)(F)F)cc1)c1csc2c(C#N)cc(Cl)cc12 (stereo partly drawn) [Example 25, N-(4-{(1S)-1-[(5-CHLORO-7-CYANO-1-BENZOTHIEN-3-YL)(4-TRIFLUOROMETHOXYPHENYL)METHYL]BUTYL}BENZOYL)-β-ALANINE]
